The text below walks through data of US20250268938A1, “SMALL MOLECULE-REGULATED CELL SIGNALING EXPRESSION SYSTEM” (Outpace Bio, Inc., priority 2021, published 2025).

Test [1] has as its system Jurkat CD3ζ-signaling reporter line. Briefly: Drug-induced cell death (loss of EGFP transduction marker) in Jurkat CD3ζ-signaling reporter line. Type of test: cell-based. The protocol: (§1) For IncuCyte analysis of CD3ζ-signaling tdTomato reporter line with CARs and DNCR2-casp-9 kill switch (with EGFP transduction maker), 5e4 CAR+ cells were plated per well in poly-D-Lys coated plate in which 5e4 Jeko1 cells were previously seeded. Drug (e.g., grazoprevir, danoprevir) was added to given final concentration and cells were imaged for tdTomato and EGFP signal at 20×, 800 msec exposure, 4 images/well, every 3 hours. Cells were removed from the Incucyte plate to a v-bottom plate for 2 washes in PBS at 48 hours when the drug condition was changed.
(§2) Coculture for flow analysis of the CAR/kill switch constructs was setup 24 hours before analysis. CAR-positive cells (le5 cells; part I and part II positive, i.e., ROR1+ and EGFRt+ (part II marker)) were mixed with le5 Jeko1 cells and drug. Cells were analyzed for ROR1, EGFRt ([…]), tdTomato, EGFP, and viability as described hereinbelow.
Percent killing was calculated by gating on live cells, then calculating 100*((percent GFP positive DMSO condition)−(percent GFP positive drug condition))/(percent GFP positive DMSO condition).
(§3) To evaluate the use of two drug inputs to control two different signaling outputs, we used a Jurkat cell CD3ζ-signaling reporter line expressing the red fluorescent protein tdTomato to track CAR signaling, and the loss of the transduction marker (EGFP) of the DNCR2-caspase-9 construct to track Jurkat cell death.
(§4) We tested the ability to switch between CAR signaling and induction of apoptosis over time in an IncuCyte assay. Briefly, the CD3ζ-signaling reporter line expressing the dual-function GNCR1-CAR/DNCR2-casp9 was mixed 1:1 with Jeko1 cells and treated with 500 nM grazoprevir or danoprevir, or DMSO. Over a period of 48 hours, CAR signaling was tracked by tdTomato intensity and drug-induced cell death (i.e., activation of the safety switch) was monitored by tracking the transduction marker EGFP intensity.
(§5) We then tested the ability to switch from induction of CAR signaling with grazoprevir to induction of apoptosis with danoprevir. Briefly, CAR signaling was activated by grazoprevir treatment at time zero. After 48 hours, the cells were washed and treated with danoprevir. CAR signaling (tdTomato intensity) and cell viability (EGFP intensity) were tracked over an additional 72-hour period.

Test [2] has the same test system. Briefly: CAR signaling (tdTomato) in Jurkat CD3ζ-signaling reporter line. Type of test: cell-based. The settings on record: for CAR signaling, tdTomato intensity, drug switch: grazoprevir at time zero, washed and danoprevir at 48 hours, tracked additional 72 hours. The protocol:
as §1, §2, §3, §4, §5

The test system of test [3] is Jurkat cells. Briefly: Kill switch percent killing in Jurkat cells (flow cytometry). Type of test: cell-based. How it is done: Kill switch-positive cells (le5) were incubated for 24-48 hours with inducer drug before staining and analysis for death. Conditions were normalized to contain about 50% transduction positive (+) cells by adding untransduced Jurkat or primary T cells in order to get accurate statistics on death.
Flow cytometry was performed on a Ze5 cytometer (Biorad). To determine expression of markers, between 1×10^5-2×10^5 total cells were transferred to a U-bottom 96 well culture dish (Corning). Cells were washed twice with Cell Staining Buffer (BioLegend), then stained with Zombie Violet (1:1000, BioLegend) and ROR1-FC for ROR1-specific CAR constructs (20 min at room temperature). Cells were washed twice in Cell Staining Buffer, then stained with Annexin V-PE (BD) in 1× Annexin V Binding Buffer (BD) for 15 min at room temperature. After staining, cells were washed once with Annexin V Binding Buffer, resuspended in AnneinV Binding Buffer and immediately analyzed.
(§6) Flow cytometry data was analyzed using FlowJo 10 (Tree Star). Percent killing was calculated by gating on live cells, then calculating 100*((percent GFP positive DMSO condition)−(percent GFP positive drug condition))/(percent GFP positive DMSO condition).
We first tested for drug-induced death of Jurkat cells by fusing NS3a and DNCR2 separately to the catalytic domain of caspase-9 (NCDC). The small molecule inducible homodimer FKBP-F36V (iCasp9), which is dimerized by AP1903 (rimiducid) and the inducible heterodimer FKBP/rapamycin/FRB dimer (rapaCasp9) were used as controls. Briefly, Jurkat cells expressing NCDC, iCasp9, or rapaCasp9 were exposed to danoprevir, rimiducid or rapamycin, respectively, for 24 hours and analyzed by flow cytometry with gating set to measure killing in the top about 10% of cells expressing the highest amount of the GFP kill switch transduction marker.
To evaluate the kill switch designs of FIG. 8A, constructs were expressed in Jurkat cells, treated with 500 nM danoprevir (DNCR2-casp-9) or 500 nM grazoprevir (GNCR1-casp-9) and cell death measured by percent killing as described herein above.
The miniaturized versions of DNCR2, D1 and D9, were fused to caspase-9 and co-expressed in Jurkat cells with homo-oligomerized NS3a scaffolds. We also evaluated a CAR construct that included an additional copy of NS3a (CAR-2×NS3a). The original DNCR2-casp-9 was used as a control. Jurkat cells expressing different DNCR2 variants fused to caspase-9 along with CAR-NS3a, CAR-NS3a-NS3a, or dimer-NS3a were treated with 500 nM danoprevir and cell death was measured by percent killing as described herein above.
We explored the ability of other human killing domains to induce cell death in Jurkat and primary human T cells. We fused FKBP-F36V to a panel of killing domains that included caspase-9 D330A, caspase-9, caspase-1, caspase-4, and the necroptosis-inducing protein RIPK3. Briefly, Jurkat and primary human CD4+/CD8+ T cells expressing FKBP(F36V)-fused killing domains were treated with 10 nM rimiducid and cell death was measured by percent killing as described herein above.
Background: Flow cytometry measures light scatter and fluorescence of single cells or particles in a stream.

The subject of test [4] is danoprevir/NS3a complex. The settings on record: cited from earlier work.
In test [5] the test system is primary human CD4+/CD8+ T cells. Briefly: Kill switch percent killing in primary human T cells. The test is classed as cell-based. The settings on record: 10 nM rimiducid, range of transduction levels. The protocol:
Pre-selected, cryopreserved primary human CD4 T cells from normal donors were obtained from Bloodworks (Seattle WA). Human T cells were cultured in OpTmizer medium (Thermo Fisher) supplemented with Immune Cell Serum Replacement (Thermo Fisher), 2 mM L-glutamine (Gibco), 2 mM Glutamax (Gibco), 200 IU/ml IL-2 (R&D systems), 120 IU/ml IL-7 (R&D systems), and 20 IU/ml IL-15 (R&D systems).
For lentiviral transduction, T cells were stimulated with a 1:100 dilution of T cell TransAct (Miltenyi) for 30 hours. Virus was then added to T cells for 18-24 hours. […]
Flow cytometry was performed on a Ze5 cytometer (Biorad). […] After staining, cells were washed once with Annexin V Binding Buffer, resuspended in AnneinV Binding Buffer and immediately analyzed.
as §6
We explored the ability of other human killing domains to induce cell death in Jurkat and primary human T cells. […] Briefly, Jurkat and primary human CD4+/CD8+ T cells expressing FKBP(F36V)-fused killing domains were treated with 10 nM rimiducid and cell death was measured by percent killing as described herein above.

Test [6] has as its system CD69 expression in CAR expressing Jurkat cells. Briefly: Induction of CD69 expression in CAR expressing Jurkat cells co-cultured with Jeko1 cells (flow cytometry). The test is classed as cell-based. The conditions noted are these: conventional single-chain ROR1-CAR Jurkat cells with Jeko1 cells; 500 nM danoprevir. How it is done: NS3a-based regulated CARs were evaluated using lentiviral transduction of T cells and flow cytometry analysis. The CARs evaluated are specific for the ROR1 antigen expressed on the target cell line Jeko1. The Jurkat and Jeko1 cell lines were obtained from American Type Culture Collection (Manassas, VA) and maintained in RPMI 1640 media with Glutamax (Gibco) containing 10% fetal calf serum (Gibco). For lentiviral transduction, Jurkat cells were incubated with lentivirus in complete media plus LentiBOOST at the manufacturers recommended concentration (Sirion Biotech). Eighteen hours after transfection, lentivirus and LentiBOOST were diluted by addition of 1 volume fresh media.
For flow analysis of induction of CD69 expression, Jurkat cells were mixed 1:1 with Jeko1 cells or Jeko1-ROR1-KO cells. Drug was added to a final concentration of 500 nM. Cultures were incubated with drug for 24 hours before flow analysis for surface markers.
Flow cytometry of CAR experiments was performed on a Ze5 cytometer (Biorad). […] Flow cytometry data was analyzed using FlowJo 10 (Tree Star).
The three NS3a-based regulated CARs described hereinabove with reference to FIG. 1B were evaluated in the Jurkat cell line. […] CD69 expression, a T cell activation marker, was detected by flow cytometry, gating on live CD3+/ROR1+ cells.

Where [7] appears, read: IncuCyte, over 48 hours, GNCR1-CAR/DNCR2-casp9 cells 1:1 with Jeko1, 500 nM drug.

Turning to `CC(C)(C)OC(=O)N[C@H]1CCCCC/C=C\[C@@H]2C[C@@]2(C(=O)NS(=O)(=O)C2CC2)NC(=O)[C@@H]2C[C@@H](OC(=O)N3Cc4cccc(F)c4C3)CN2C1=O` [danoprevir, (2R,6S,12Z,13aS,14aR,16aS)-14a-[(Cyclopropylsulfonyl)carbamoyl]-6-({[(2-methyl-2-propanyl)oxy]carbonyl}amino)-5,16-dioxo-1,2,3,5,6,7,8,9,10,11,13a,14,14a,15,16,16a-hexadecahydrocyclopropa[e]pyrrolo[1,2-a][1,4]diazacyclopentadecin-2-yl 4-fluoro-1,3-dihydro-2H-isoindole-2-carboxylate], the “effect on Jurkat cells expressing a conventional CAR with DNCR2-casp-9” value in test [1] (500 nM drug) is listed as “no effect”. In test [1] (GNCR1-CAR/DNCR2-casp-9 system, 500 nM drug, loss of EGFP-positive population relative to DMSO), the “percent killing (safety-switch)” value was “triggered”. In test [1] (setting [7]), the “cell viability, EGFP intensity” value is on record as “decreased cell viability”. Besides, in test [1] (danoprevir added at 48 hours, with or without previous grazoprevir treatment), the “cell viability, EGFP signal, drug switch” value is reported as “began to drop”. Besides, the “CAR signaling, tdTomato intensity, drug switch” value in test [2] is on record as “declines”. The “percent killing, two-chain direct dimerization design NCDC” value in test [3] (NS3a-casp-9/DNCR2-casp-9 (NCDC), drug titration, 24 hours, top about 10% GFP-expressing Jurkat cells) is “modest killing”.

In the case of `C=C[C@@H]1C[C@]1(NC(=O)[C@@H]1C[C@@H]2CN1C(=O)[C@H](C(C)(C)C)NC(=O)O[C@@H]1C[C@H]1CCCCCc1nc3ccc(OC)cc3nc1O2)C(=O)NS(=O)(=O)C1CC1.O` [grazoprevir], in test [1] (500 nM drug), the “effect on Jurkat cells expressing a conventional CAR with DNCR2-casp-9” value was “no effect”. Moreover, the “CAR signaling, tdTomato intensity” value in test [2] (setting [7]) was “only activated”. Further, in test [2] (dual-function GNCR1-CAR/DNCR2-casp-9, 500 nM drug, flow cytometry), the “CAR signaling, tdTomato gMFI” value is recorded as “activated”. Moreover, in test [2], the “CAR signaling, tdTomato intensity, drug switch” value was “increases”.

As for “DNCR2: danoprevir/NS3 complex reader polypeptide (SSDEEEARELIERAKEAAERAQEAAERTGDPRVRELARELKRLAQEAAEEVKRDPSSSD)”, the “affinity for the danoprevir/NS3a complex” value in test [4] is listed as “high affinity”.

For the molecule “RIPK3: FKBP-F36V fused to the necroptosis-inducing protein RIPK3”, the “percent killing, FKBP(F36V)-fused killing domains” value in test [3] (Jurkat cells, 10 nM rimiducid, range of transduction levels) is given as “not able to induce cell death”; in test [5], “not able to induce cell death”.

B1: Conventional CAR: conventional, single-chain ROR1-CAR (protein)
chain: CPPCPMFWVLVVVGGVLACYSLLVTVAFIIFWVKRGRKKLLYIFKQPFMRPVQTTQEEDGCSCRFPEEEEGGCELRVKFSRSADAPAYQQGQNQLYNELNLGRREEYDVLDKRRGRDPEMGGKPRRKNPQEGLYNELQKDKMAEAYSEIGMKGERRRGKGHDGLYQGLSTATKDTYDALHMQALPPR
With B1, the “CD69 expression, regulation in response to danoprevir” value in test [6] is recorded as “no significant regulation”.
